According to publication PMC3242641 (European journal of medicinal chemistry, 2011):

How the values were obtained:
WT HIV-1 RT [1] = target: T1, WT HIV-1 RT (Human immunodeficiency virus type 1 group M subtype B, UniProt P04585); conditions: read-out: K, dNTP; cited from earlier work
HIV-1 = format: cell-based
human PBM cells = conditions: 4 h at 50 μM, PHA activated human PBM cells, 37 °C
PBM cells [2] = system: PBM cells
wild-type HBV = test: Anti-HBV activity, HepG2 AD38 system; format: cell-based; conditions: read-out: Anti-HBV activity EC50
PBM cells [3] = test: Cytotoxicity in PBM cells; conditions: cell type not named in the sentence (PBM, CEM and Vero were tested)
WT HIV-1 RT [4] = target: T1, WT HIV-1 RT; format: biochemical

Nc1ccn([C@H]2C[C@H](O)[C@@H](COP(=O)(O)OP(=O)(O)OP(=O)(O)O)O2)c(=O)n1 [dCTP]
Kd (WT HIV-1 RT [1]): 1.1 ± 0.4 µM

CCOC(=O)[C@H](C)NP(=O)(OC[C@@H]1O[C@H](n2cc(C)c(=O)[nH]c2=O)C[C@H]1N=[N+]=[N-])Oc1ccccc1 (stereo partly drawn) [Compound 28, 1-(3′-Azido-2′, 3′-dideoxy-β-L-thymidine)-O-(phenyl-[ethoxyl-L-alaniny])-phosphate]
Anti-HIV-1 activity, in words (HIV-1): inactive

CCOC(=O)[C@H](C)NP(=O)(OC[C@@H]1O[C@H](n2cnc3c(Cl)nc(N)nc32)C[C@H]1N=[N+]=[N-])Oc1ccccc1 (stereo partly drawn) [Compound 18, 9-(3-Azido-2,3-dideoxy-β-L-ribofuranosyl)-2-amino-6-chloropurine-5-O-[phenyl-(ethoxy-L-alaninyl)]-phosphate]
Amount of intracellular intact prodrug detected (human PBM cells): 12 fmol/10^6 cells

CCOC(=O)[C@H](C)NP(=O)(OC[C@@H]1O[C@H](n2cnc3c(N)ncnc32)C[C@H]1N=[N+]=[N-])Oc1ccccc1 (stereo partly drawn) [Compound 11, 3′-Azido-2′, 3′-dideoxy-β-L-adenosine-5′-O-[phenyl-(ethoxy-L-alaninyl)]-phosphate]
Increase in anti-HIV activity versus 10 (HIV-1): 45 fold

CCOC(=O)[C@H](C)NP(=O)(OC[C@@H]1O[C@H](n2cnc3c(O)nc(N)nc32)C[C@H]1N=[N+]=[N-])Oc1ccccc1 (stereo partly drawn) [Compound 16, 3′-Azido-2′, 3′-dideoxy-β-L-guanosine-5′-O-[phenyl-(ethoxy-L-alaninyl)]-phosphate]
Anti-HIV-1 activity, in words (HIV-1): inactive

[N-]=[N+]=N[C@@H]1C[C@@H](n2cnc3c(Cl)ncnc32)O[C@H]1CO [Compound 7, 9-(3-Azido-2,3-dideoxy-β-L-ribofuranosyl)-6-chloro-9H-purine]
Amount of intracellular nucleoside triphosphate (TP) detected (human PBM cells): no detectable TPs

COc1ncnc2c1ncn2[C@@H]1C[C@@H](N=[N+]=[N-])[C@H](CO)O1 [Compound 9, 9-(3-Azido-2,3-dideoxy-β-L-ribofuranosyl)-6-methoxyl-9H-purine]
Amount of intracellular nucleoside triphosphate (TP) detected (human PBM cells): below the level of detection

CNc1ncnc2c1ncn2[C@@H]1C[C@@H](N=[N+]=[N-])[C@H](CO)O1 [Compound 12, 9-(3-Azido-2,3-dideoxy-β-L-ribofuranosyl)-6-methylamino-9H-purine]
Amount of intracellular nucleoside triphosphate (TP) detected (human PBM cells): below the level of detection

9-(3-Azido-2,3-dideoxy-β-L-ribofuranosyl)-2-fluoro-6-aminopurine [Compound 26]
IC50 (Vero cells): > 100 µM
IC50 (PBM cells [2]): > 100 µM
EC50 (wild-type HBV): > 100 µM
EC90 (HIV-1; read-out: Anti-HIV activity EC90): > 100 µM
IC50 (CEM cells): > 100 µM

CCOC(=O)[C@H](C)NP(=O)(OC[C@@H]1O[C@H](n2cnc3c(N)nc(N)nc32)C[C@H]1N=[N+]=[N-])Oc1ccccc1 (stereo partly drawn) [Compound 22, 9-(3-Azido-2,3-dideoxy-β-L-ribofuranosyl) -2,6-diaminopurine-5-O-(phenyl-[ethoxyl-L-alaninyl])-phosphate]
Observed toxicity (no toxicity up to) (PBM cells [3]): > 100 µM

Cc1cn([C@H]2C[C@H](N=[N+]=[N-])[C@@H](CO)O2)c(=O)[nH]c1=O [Compound 27, 3′-Azido-2′-3′-dideoxy-β-L-thymidine]
Anti-HIV-1 activity, in words (HIV-1): inactive

Nc1ccn([C@@H]2CS[C@H](COP(=O)(O)OP(=O)(O)OP(=O)(O)O)O2)c(=O)n1 [Compound 3TC-TP]
Incorporation, fold better than the L-3′-azido-ddNTPs (WT HIV-1 RT [4]): 12-500 fold

[N-]=[N+]=N[C@@H]1C[C@@H](n2cnc3c(Cl)nc(N)nc32)O[C@H]1CO [Compound 17, 9-(3-Azido-2,3-dideoxy-β-L-ribofuranosyl)-2-amino-6-chloropurine]
Amount of intracellular nucleoside triphosphate (TP) detected (human PBM cells): no detectable TPs
